System: 4T1 tumor
Test: Therapeutic efficacy, 4T1 tumor-bearing mice
Experimental: (c) Tumor growth curves (n=6) and (d) overall survival curves (n=6) of 4T1 tumor-bearing mice. […] 95% confidence intervals were obtained by two-sided Student t-test analysis. […] Data are presented as mean±SD and analyzed by two-tailed Student's t-test.
FIG. 47 depicts the tumor control rate and body weights of mice. […] (c) Body weights of 4T1 tumor-bearing mice after intraperitoneal injection of saline, Oxa (6 mg/kg), aPD-L1 (10 mg/kg) and aPD-L1/Oxa at day 0, 2 and 4. […] Statistical significance was performed by two-tailed Student's t-test. ns: not significant, *P<0.05, **P<0.01, ***P<0.001, ****P<0.0001.
After tumor inoculation for one week, 4T1 tumor-bearing mice were administrated with aPD-L1 (10 mg/kg), Oxa (6 mg/kg) or the combination of aPD-L1 and Oxa (aPD-L1/Oxa) intraperitoneally every two days for three times.
The tumor control rate was calculated with the following formulas:
Vt0 means the volume of tumor on day 0, Vt means the volume at certain time, c means the control group (saline, without irradiation), and s means the group needed calculation.

SMILES: O=C1[O][Pt]2([NH][C@@H]3CCCC[C@H]3[NH]2)[O]C1=O [Oxa, oxaliplatin]
- survival rate: 50%
- tumor control rate (TCR) (intraperitoneal, every two days for three times): 48%

From patent publication US20250099625A1, “TANDEM MOLECULAR FLUORESCENCE REPORTERS FOR DETECTION OF TUMOR-INFILTRATING LEUKOCYTES” (Nanyang Technological University, priority 2021, published 2025)
